From patent US20240423904A1, “Systems and Methods for Controlling Chemical Reactions Using Ultrasound” (priority 2023, published 2024)

How the values were obtained:
[1] = Thermally activated release of camptothecin from mechanophore bis-initiator, 1H NMR and LCMS; format: physicochemical; details: 24 h at 100° C. in toluene-d8, then diluted into 3:1 acetonitrile/methanol
Description: Several embodiments provide confirmation of CPT release via ^1H NMR spectroscopy and LCMS. Prior to mechanochemical activation studies, we first confirmed that camptothecin was released in polar protic solvent upon unmasking of the expected unstable furfuryl carbonate. To enable characterization, the furfuryl carbonate species was generated thermally from small molecule initiator 1-CPT. Masked furfuryl carbonate 1-CPT was dissolved in toluene-d8 and analyzed by ^1H NMR spectroscopy before and after heating for 24 h at 100° C. Comparison to spectrum of the expected maleimide fragment confirmed significant thermal retro-Diels-Alder reaction occurred under these conditions. A drop of this solution was then diluted into 3:1 acetonitrile/methanol and analyzed by LCMS (gradient of 0-50% acetonitrile/water over 4 minutes).

[2] = Stability of free CPT upon exposure to FUS, HPLC; format: physicochemical; details: FUS 10 min, presence or absence of GVs (1.4 nM)
Description: Experiments were performed in duplicate on a sample of CPT in water (˜3 μM). After insonation, samples were diluted 3:1 with a stock solution of IS (40 μM) and concentrations were determined from integration of the peak corresponding to CPT relative to that of the internal standard and scaled by 4/3 to account for dilution.

Raji cells = assay: MTT cell viability assay on Raji cells; format: cell-based; details: Homo sapiens, 48 h, pure CPT, 2 days at 37° C.
Description: Raji cells were incubated in RPMI 1640 media with 10% fetal bovine serum and 1% antibacterial Penicillin/Streptomycin (PenStrep) at 37° C. and 5% CO2. An MTT colorimetric assay was used to quantify cell viability.
Raji cells were used to evaluate the effectiveness of CPT release for potential chemotherapy. Raji cells were incubated in RPMI 1640 media, with 10% fetal bovine serum and 1% antibacterial Penicillin/Streptomycin (PenStrep) at 37° C. and 5% CO2. The instructions provided by the manufacturer (Abcam) were followed to perform the MTT assay. Approximately 10,000 Raji cells suspended in 150 μL of media were seeded into each well of a 96-well plate. Subsequently, 50 μL of polymer sample (or pure CPT) at varying concentrations was added to corresponding wells. For calibration purposes, wells without cells and wells with only cells and media were also prepared, representing 0% and 100% cell viability, respectively. After 48 hours of incubation, cells were spun down inside the plate and media were carefully aspirated. Then 50 μL of serum free media and 50 μL of MTT solution were added to each well. Following a 3 h incubation, 150 μL MTT solution was added to each well. […] The absorbance at 590 nm was measured by a microplate reader (TECAN Spark) to quantify the cell viability in each well. Cell viability is calculated using eq.

CC[C@@]1(OC(=O)OC(C)[C@]23O[C@](COC(=O)C(C)(C)Br)(C=C2Oc2ccccc2)[C@@H]2C(=O)N(CCOC(=O)C(C)(C)Br)C(=O)[C@@H]23)C(=O)OCc2c1cc1n(c2=O)Cc2cc3ccccc3nc2-1 (stereo partly drawn) [1-CPT, ((3aR,4R,7S,7aS)-2-(2-((2-bromo-2-methylpropanoyl)oxy)ethyl)-7-(1-(((((S)-4-ethyl-3,14-dioxo-3,4,12,14-tetrahydro-1H-pyrano[3′,4′:6,7]indolizino[1,2-b]quinolin-4-yl)oxy)carbonyl)oxy)ethyl)-1,3-dioxo-6-phenoxy-1,2,3,3a,7,7a-hexahydro-4H-4,7-epoxyisoindol-4-yl)methyl 2-bromo-2-methylpropanoatebromo-2-methylpropanoate]
release of CPT after thermal retro-Diels-Alder reaction [1]: CPT is released

CC[C@@]1(O)C(=O)OCc2c1cc1n(c2=O)Cc2cc3ccccc3nc2-1 [CPT, camptothecin]
stability upon exposure to FUS [2]: stable
EC50 (Raji cells): ~25 nM
